Laboratory results published in patent publication US5403930A, “Substituted salicylic acids” (Pharmacia AB, priority 1991, dated 1995).

Assays:
[1] = system: Human Granulocytes; assay: FMLP-induced superoxide production of human granulocytes, 10 μM test compound; format: cell-based; details: 10 nM FMLP, 400 000 granulocytes
Protocol: Effects of Test Compounds on Superoxide Production of Human Granulocytes
(§1) Granulocytes were isolated from the heparinized blood from healthy volunteers. The superoxide assay was essentially that of J. M. McCord and I Fridovich (J. Biol. Chem. 244:6049-6055 (1969)) as modified by G Carlin et al. (Pharmacol. Toxicol 65:121-127 (1989)). The reaction mixture contained (final concentrations) 125 μM cytochrome C in Dulbeccos phosphate buffer with Mg and Ca, 10 μM test compound and 400 000 granulocytes treated with 5 μg/ml of cytochalasin B immediately before the experiment. This reaction mixture was preincubated at 37° C. for 10 minutes, whereafter 10 nM N-formyl-L-methionyl-L-leucyl-L-phenylalanine was added to start the reaction, making the final volume 1 ml. After 10 minutes the tubes were centrifuged and the absorbance of the supernatant at 540 and 550 nm was measured. The superoxide production was expressed as the difference in absorbance at these wavelengths.

[2] = system: human lymphocytes; assay: Concanavalin A-induced proliferation of human lymphocytes ([3H]-thymidine); format: cell-based; details: Lymphocyte, 72 h, 250 μM test compound, 2.5 μg/ml Concanavalin A, 3 days, 2 experiments
Protocol: Effect of Compounds on Human Lymphocyte Proliferation Peripheral blood mononuclear cells were isolated from heparinized blood from healthy volunteers by density gradient centrifugation as described by Bain and Pshyk, Transplantation Proc, 4:163-164 (1972). Cell proliferation induced by Concanavalin A was measured in a standard assay such as described in Soderstrom et at., Scand J Immunol, 32:503-516 (1990) using 5% fetal bovine serum in the culture medium. The reaction mixture (final concentrations) consisted of 200 000 cells stimulated with 2.5 μg/ml Concanavalin A and test compounds in a total volume of 0.2 ml. The test compounds were added at the start of the assay, which was run for a total of three days with addition ofradioactive [3H]-thymidine during the last 18 h. Cell bound radioactivity was measured in a liquid scintillation counter.

[3] = rheumatoid arthritis, ulcerative colitis, ankylosing spondylitis, reactive arthritis, psoriasis; cited from earlier work
[4] = system: T-lymphocytes; details: cited from earlier work
[5] = system: Human Granulocytes; assay: FMLP-induced superoxide production of human granulocytes, 100 μM test compound; format: cell-based; details: 100 nM FMLP, 600 000 granulocytes
Protocol: Effects of Test Compounds on Superoxide Production of Human Granulocytes at 100 um Concentration
as §1, with “et at.” for “et al.”, “Ca, 100” for “Ca, 10”, “and 600” for “and 400”, “whereafter 100” for “whereafter 10”

## O=C(O)c1cc(/N=N/c2ccc(S(=O)(=O)Nc3ccccn3)cc2)ccc1O [Sulfasalazine, reference compound]
[1]
  inhibition at 10 µM: 63.5%
[2]
  inhibition at 250 µM: 53.7%
[3]
  Clinical effectiveness in autoimmune diseases: clinically effective
[4]
  Inhibition of activation and proliferation of T-lymphocytes: inhibits activation and proliferation of T-lymphocytes
[5]
  inhibition at 100 µM: 65.4%
